Assay results from PMC6160999, “Pharmacokinetics, Tissue Distribution and Excretion of a Novel Diuretic (PU-48) in Rats” (Pharmaceutics, 2018).
Like-named read-outs stand apart in the source and are kept apart here.

Assay: Plasma pharmacokinetics after single oral PU-48 SNEDDS
Format: in vivo, rat
Conditions: for AUC(0-inf) / AUC(0-t) / Cmax / Tmax / t1/2 / half-life: rat plasma, n=6
Experimental: The method for quantification PU-48 in rat samples (plasma, thirteen tissues, urine and bile) has been developed and validated in our preliminary experiment. Briefly, PU-48 was quantitative analyzed by the liquid chromatography-electrospray ionization source-triple quadrupole tandem mass spectrometer (LC-MS/MS) system, which consisted of the Shimazdu LC-20AD pumpers (Shimadzu, Kyoto, Japan), a 20 μL loop and a SPD-M20A PDA detector. Chromatographic separation was accomplished on a Shimazdu Inertsil ODS-4 C18 column (2.1 × 100 mm, 3 µm, Shimadzu) and coupled to the API4000 mass spectrometer detector equipped with the Analyst 1.6 software (AB Sciex, Redwood City, CA, USA). The monitored ion transitions were mass-to-charge ratio (m/z) 289.1 → 229.2 for PU-48 and m/z 385.3 → 267.1 for the internal standard under positive mode. The mobile phase consisted of (A) water, and (B) acetonitrile, both containing 0.05% formic acid using the following gradient elution: 0–2 min (20% B), 2–8 min (20–100% B), 8–9.5 min (100% B), 9.5–13 min (20% B). Sample of 5 μL was injected. The quantification analysis of PU-48 in plasma, urine, bile and tissues (liver, muscle, and adipose tissue) were evaluated for specificity, linearity, precision, accuracy and recovery (See Supplementary Materials Tables S1–S3).
After fasting overnight with free drinking water (12 h before the experiment), eighteen rats were divided randomly into three groups, and blood samples at each time point were collected from six rats. The rats were given three doses of PU-48 (3, 6, or 12 mg/kg, respectively, 1.2 mg/mL in the SNEDDS formulation) by oral gavage. Blood samples (0.3 mL) were collected from the ophthalmic venous plexus at the predose, 0.25, 0.5, 1, 2, 4, 6, 8, 12, 24, 36, and 48 h post-dosing (total 12 time points) in heparinized tubes. The blood samples were centrifuged at 2500 rpm (1200× g) for 15 min and the plasma was stored at −20 °C until analysis.
The non-compartmental analysis method was used to calculate the pharmacokinetic parameters of PU-48 using Drug and Statistical Version 3.0 (DAS 3.0) software (the Mathematical Pharmacology Committee, Chinese Pharmacological Society, Beijing, China). The maximum peak concentration of the drug in plasma (Cmax) and the time to reach the maximum concentration (Tmax) were obtained directly from the experimental data. The area under the plasma concentration-time curves from 0 to infinity (i.e., AUC0–∞) and from 0 to the time of the last quantifiable concentration (AUC0–t) was calculated by the trapezoidal summation. The terminal elimination rate constant (Ke) was derived from the slope of the linear regression curve by fitting the natural logarithms of the terminal concentrations versus time. The terminal elimination half-life (t1/2) was calculated by 0.693/Ke. The data from the quality control (QC) samples were examined by a one-way analysis of variance (ANOVA). All values were expressed as mean ± SD (Standard Deviation).

[1] = plasma, rat, oral PU-48 SNEDDS 3 mg/kg
[2] = plasma, rat, oral PU-48 SNEDDS 6 mg/kg
[3] = plasma, rat, oral PU-48 SNEDDS 12 mg/kg

- concentration at 0.25 h [1]: 11.9 ± 15.5 ng/mL
- concentration at 0.25 h [2]: 51.1 ± 51.2 ng/mL
- concentration at 0.25 h [3]: 91.1 ± 52 ng/mL
- concentration at 0.5 h [1]: 12.6 ± 11.1 ng/mL
- concentration at 0.5 h [2]: 52.9 ± 46.8 ng/mL
- concentration at 0.5 h [3]: 94.3 ± 49.6 ng/mL
- concentration at 1 h [1]: 11.8 ± 11.2 ng/mL
- concentration at 1 h [2]: 48.3 ± 32.8 ng/mL
- concentration at 1 h [3]: 74.8 ± 36.1 ng/mL
- concentration at 2 h [1]: 13.8 ± 16.6 ng/mL
- concentration at 2 h [2]: 16.8 ± 10.1 ng/mL
- concentration at 2 h [3]: 19.7 ± 4.2 ng/mL
- concentration at 4 h [1]: 1.1 ± 0.7 ng/mL
- concentration at 4 h [2]: 2.3 ± 1.2 ng/mL
- concentration at 4 h [3]: 4.3 ± 3.1 ng/mL
- concentration at 6 h [1]: 0.3 ± 0.2 ng/mL
- concentration at 6 h [2]: 1.2 ± 0.5 ng/mL
- concentration at 6 h [3]: 2.1 ± 0.8 ng/mL
- concentration at 8 h [1]: 0.5 ± 0.9 ng/mL
- concentration at 8 h [2]: 0.6 ± 0.4 ng/mL
- concentration at 8 h [3]: 1.5 ± 0.5 ng/mL
- concentration at 12 h [1]: 0.1 ± 0.1 ng/mL
- concentration at 12 h [2]: 0.3 ± 0.2 ng/mL
- concentration at 12 h [3]: 1.1 ± 0.8 ng/mL
- concentration at 24 h [2]: 0.3 ± 0.3 ng/mL
- concentration at 24 h [3]: 0.1 ng/mL
- concentration at 36 h [2]: 0.2 ± 0.1 ng/mL
- concentration at 36 h [3]: 0.8 ± 0.9 ng/mL
- concentration at 48 h (plasma, 48 h, rat, oral PU-48 SNEDDS 12 mg/kg): 0.2 ng/mL
- AUC(0-inf) (oral PU-48 SNEDDS 3 mg/kg): 60.5 ± 38.5 ng·h/mL
- AUC(0-t) (oral PU-48 SNEDDS 3 mg/kg): 60 ± 38.3 ng·h/mL
- Cmax (oral PU-48 SNEDDS 3 mg/kg): 12.6 ± 11.1 ng/mL
- Tmax (oral PU-48 SNEDDS 3 mg/kg): 1.19 ± 0.94 h
- t1/2 (oral PU-48 SNEDDS 3 mg/kg): 7.14 ± 2.93 h
- AUC(0-inf) (oral PU-48 SNEDDS 6 mg/kg): 108 ± 52.5 ng·h/mL
- AUC(0-t) (oral PU-48 SNEDDS 6 mg/kg): 107 ± 53 ng·h/mL
- Cmax (oral PU-48 SNEDDS 6 mg/kg): 52.9 ± 46.8 ng/mL
- Tmax (oral PU-48 SNEDDS 6 mg/kg): 0.63 ± 0.31 h
- AUC(0-inf) (oral PU-48 SNEDDS 12 mg/kg): 181 ± 62.5 ng·h/mL
- AUC(0-t) (oral PU-48 SNEDDS 12 mg/kg): 179 ± 60.1 ng·h/mL
- Cmax (oral PU-48 SNEDDS 12 mg/kg): 94.3 ± 49.6 ng/mL
- t1/2 (oral PU-48 SNEDDS 12 mg/kg): 6.87 ± 3.49 h
- half-life (rat, plasma, po, 3 mg/kg, oral PU-48 SNEDDS 3 mg/kg): 7.1 ± 2.9 h
- Tmax (rat, plasma, po, 3 mg/kg, oral PU-48 SNEDDS 3 mg/kg, read-out: Tmax): 1.2 ± 0.9 h
- half-life (rat, plasma, po, 6 mg/kg, oral PU-48 SNEDDS 6 mg/kg): 7 ± 2.7 h
- Tmax (rat, plasma, po, 6 mg/kg, oral PU-48 SNEDDS 6 mg/kg, read-out: Tmax): 0.6 ± 0.3 h
- half-life (rat, plasma, po, 12 mg/kg, oral PU-48 SNEDDS 12 mg/kg): 6.9 ± 3.5 h
- Tmax (rat, plasma, po, 12 mg/kg, oral PU-48 SNEDDS 12 mg/kg, read-out: Tmax): 0.5 ± 0.27 h
Structure (SMILES): COC(=O)c1sc2nc3ccc(OC)cc3cc2c1N [PU-48, Methyl 3-amino-6-methoxythieno [2,3-b] quinoline-2-carboxylate]
- Mean plasma concentration at the 48 h time point (rat, oral 3, 6 and 12 mg/kg, LLOQ 0.1 ng/mL): below the lower limit of quantitation (LLOQ)
